Measured values reported in patent publication US8791079B2, “Methods for treating heart failure by inhibiting the mitochondrial sodium-calcium exchanger (mNCE)” (priority 2009, dated 2014).

Legend:
aortic-banded animals [1] = assay: Acute sudden cardiac death model (ascending aortic banding plus isoproterenol 5 mg/kg); assay type: in vivo, guinea pig; conditions: single dose 5 mg/kg isoproterenol i.p. two days after aortic banding; CGP-37157 by osmotic pump; 77% without CGP-37157
Source text: (§1) As provided herein, the presently disclosed subject matter investigated whether these mechanisms underlie sudden cardiac death (SCD) and contractile decompensation in hypertrophic heart failure in two novel guinea-pig models of combined ascending aortic constriction together with β-adrenergic stimulation and whether therapy via mNCE inhibition was effective. Accordingly, in some embodiments, the presently disclosed subject matter provides a therapeutic strategy for treating heart failure.
(§2) Two models were developed: acute SCD and delayed SCD. The acute SCD model used a high dose of isoproterenol (5 mg/kg) administered by a single intraperitoneal injection two days after ascending aortic banding; and the delayed SCD model used low dose isoproterenol (week one: 1 mg/kg; subsequent weeks: 2 mg/kg), administered by daily intraperitoneal injection over the course of five weeks after aortic banding. Additionally, a therapeutic regime comprised of chronic treatment with an inhibitor of mNCE, e.g., CGP-37157, mean dose approximately 40 μg/kg, administered by implantation of an osmotic pump in the abdominal cavity (delivery rate: 0.015 mg/kg/hr) for extended delivery of the compound was initiated.

[2] = biological target: T1, mitochondrial Na+/Ca2+ exchanger (mNCE) (Cavia porcellus, UniProt H0V3X3); conditions: cited from earlier work
T1 construct: in normal cardiac myocytes, with [Na^+]i elevated artificially using the patch clamp technique, and in myocytes isolated from failing hearts; host or cells: isolated cardiac myocytes (endogenous protein)
T1 sequence (H0V3X3 27-580): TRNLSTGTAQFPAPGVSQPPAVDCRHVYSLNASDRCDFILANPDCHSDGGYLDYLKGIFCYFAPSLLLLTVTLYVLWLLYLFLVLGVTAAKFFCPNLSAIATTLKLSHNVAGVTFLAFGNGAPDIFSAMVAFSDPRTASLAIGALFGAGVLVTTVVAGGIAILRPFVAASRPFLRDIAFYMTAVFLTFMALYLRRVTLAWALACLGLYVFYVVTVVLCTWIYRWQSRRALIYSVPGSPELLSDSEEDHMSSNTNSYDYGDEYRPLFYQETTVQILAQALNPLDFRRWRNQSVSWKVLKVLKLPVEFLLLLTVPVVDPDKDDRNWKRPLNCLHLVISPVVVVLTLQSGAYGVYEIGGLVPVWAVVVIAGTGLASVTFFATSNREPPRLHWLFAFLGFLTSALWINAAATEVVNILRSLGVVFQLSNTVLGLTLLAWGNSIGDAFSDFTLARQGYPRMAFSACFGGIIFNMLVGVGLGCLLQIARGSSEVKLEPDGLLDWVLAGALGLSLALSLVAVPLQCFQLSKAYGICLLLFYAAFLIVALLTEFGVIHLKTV

aortic-banded animals [3] = assay: Delayed sudden cardiac death model (aortic banding plus daily low dose isoproterenol), survival and echocardiography; assay type: in vivo, guinea pig
Source text: as §1, §2
The delayed SCD protocol was used to investigate the effect of chronic CGP-37157 treatment on mortality and the development of heart failure. Survival was extended using this protocol as compared with the acute SCD model. In the absence of CGP-37157, however, the death rate of the animals approached 60% by 30 days post-banding (see FIG. 10). In contrast, more than 78% of the animals survived in the group with CGP-37157 treatment (see FIG. 10).
Further, echocardiographic studies were carried out before surgery and at four weeks after aortic banding (see FIG. 11). […] In the group with CGP-37157 treatment, however, cardiac function was maintained.

[4] = tested on: Guinea pig ventricular myocytes; assay: [Na+]i recording with SBFI in isolated cardiac myocytes; assay type: cell-based; conditions: ouabain at different concentrations, at rest or with 1-Hz stimulation
Description: Guinea pig ventricular myocytes were isolated by enzymatic digestion as described previously. O'Rourke, B., et al., “Oscillations of membrane current and excitability driven by metabolic oscillations in heart cells,” Science, 265(5174):962-966 (Aug. 12, 1994). Cells were suspended in Dulbecco's Modification of Eagle's Medium (DMEM) supplemented with 5% fetal bovine serum, 1% penicillin/streptomycin, and 15 mmol/L HEPES, pH 7.4, and stored in a 5% CO2 incubator at 37° C.
Cytosolic Ca^2+ ([Ca^2+]c), mitochondrial Ca^2+ ([Ca^2+]m), and [Na^+]i were measured with the fluorescent indicators indo-1, rhod-2, and sodium-binding benzofuran isophthalate (SBFI), respectively (Invitrogen, Carlsbad, Calif.), and mitochondrial NADH was measured as the cellular autofluorescence with 360-nm excitation/450-nm emission. Indo-1 was loaded into cell with the membrane permeable form, indo-1 AM. To minimize indo-1 loading into the mitochondrial compartment, cells were briefly incubated with indo-1 AM at room temperature for 20 min. Rhod-2 and SBFI experiments were carried out as previously described. Maack et al., supra, Liu and O'Rourke, supra. […]
Isolated ventricular myocytes were loaded into a heated field-stimulation chamber (Warner Instruments, Hamden, Conn.) at 37° C. on the stage of a fluorescence microscope (Nikon Eclipse TE300, Nikon Instruments, Inc., Melville, N.Y.). […]

| SMILES | death rate (aortic-banded animals [1]) | mitochondrial NADH production ([2]; cells with elevated [Na+]i) | mitochondrial Ca2+ retention capacity ([2]; inhibition of [Ca2+]m efflux) | animals survived (aortic-banded animals [3]; 30 days post-banding, daily isoproterenol, CGP-37157 by osmotic pump, death rate approached 60% without CGP-37157) | Fractional Shortening (FS) at baseline (aortic-banded animals [3]; CGP-37157-treated group, before surgery, n=6) | Fractional Shortening (FS) at four weeks after aortic banding (aortic-banded animals [3]; CGP-37157-treated group, n=6, without CGP-37157 FS decreased from 54.9 to 42.5) | left ventricular wall thickness (aortic-banded animals [3]; echocardiography four weeks after aortic banding versus before surgery) | [Na+]i [4] |
| --- | --- | --- | --- | --- | --- | --- | --- | --- |
| O=C1CSC(c2ccccc2Cl)c2cc(Cl)ccc2N1 (centres unmarked) [CGP-37157, 7-chloro-5-(2-chlorophenyl)-1,5-dihydro-4,1-benzothiazepin-2(3H)-one] | 20% | restores mitochondrial NADH production | increases mitochondrial Ca^2+ retention capacity | more than 78% | 54.0%±1.0 | 59.2%±1.8 | increased similarly in both groups |  |
| C[C@@H]1O[C@@H](O[C@H]2C[C@@H](O)[C@]3(CO)[C@H]4[C@H](O)C[C@]5(C)[C@@H](C6=CC(=O)OC6)CC[C@]5(O)[C@@H]4CC[C@]3(O)C2)[C@H](O)[C@H](O)[C@H]1O [ouabain, 1β,3β,5β,11α,14,19-Hexahydroxycard-20(22)-enolide 3-(6-deoxy-α-L-mannopyranoside, reference compound] |  |  |  |  |  |  |  | elevated [Na^+]i monotonically in a dose-dependent way |
